# Reference: patent US20230414776A1, “Small Molecule-Nanobody Conjugate Inducers of Proximity (SNACIP) and Preparation Methods and Use thereof” (Harbin Institute of Technology, priority 2022, published 2023)
# Columns and labels:
# Type in all cases: cell-based
# EGFP in HeLa cells = experiment: Localization of EGFP to subcellular structures; details: TMP 10 μM, 10 min
# Method: Treatment of living cells with an SNACIP inducer of dimerization for microscopic imaging: Unless otherwise specified, first a DMEM complete medium of the cells is replaced with a phenol red-free imaging medium of the SNACIP inducer of dimerization of the corresponding concentration, and then imaging is performed after incubation for a given period of time. For cRGT, the concentration represents an effective ratio of cRGT; and near-complete dimerization regulation may be achieved without washing off excess cRGT before imaging.
# Many cellular processes are regulated by dynamic distribution of proteins in the cell.
# Rac1 = Rac1 localization to plasma membrane and lamellipodia formation by cRGT
# From the text: A constitutively active mutant EGFP-NES-Rac1Q61LΔCAAX (G-NES-Rac1 for short, green, cytoplasmic distribution) without the plasma membrane targeting ability and lacking the CAAX-box sequence and mCherry-eDHFR-CAAX (red, plasma membrane localized), being co-expressed in living HeLa cells; treatment of the HeLa cells with cRGT will localize the Rac1 mutant to the functional location of the plasma membrane, which in turn induces a signaling cascade process during lamellipodia formation. Confocal micrographs of representative living HeLa cells co-expressing G-NES-Rac1 and mCherry-eDHFR-CAAX, before treatment with cRGT (Pre), after treatment with 24 μM cRGT, and after addition of TMP at a final concentration of 10 μM. Statistical analysis of colocalization between the EGFP channel and the mCherry channel by PCC were shown. Statistical analysis of cell areas before treatment with cRGT (Pre), after treatment with 24 μM cRGT, and after treatment with TMP at a final concentration of 10 μM was also shown. […] Curve comparison of streak analysis of cells after dimerization induced by cRGT and TMP-Cl. […] Abbreviations in the pictures: mCherry is abbreviated as mChe or R; EGFP is abbreviated as G; mTurquoise2 is abbreviated as mTurq or C; eDHFR is abbreviated as ED; HaloTag is abbreviated as HT. All scales: 10 μm. […]
# mEYFP = experiment: Regulation of GFP mutant mEYFP localization; details: TMP 10 μM, 10 min
# From the text: Yellow fluorescent protein mEYFP and turquoise fluorescent protein mTurquoise2 are close mutants of the GFP. […] This is an interesting phenomenon, but can also be reasonably explained: Asn146 in GFP, a residue that has a key hydrogen-bonding interaction with the Asn99 residue of GBP, is retained in EGFP and mEYFP, but is mutated to Ile146 in mTurquoise2. […] Therefore, cRGT is an all-rounder, can regulate the proteins of interest to which EGFP, mEYFP and eDHFR are fused, and also has good orthogonality to other fluorescent proteins.
# eDHFR and HaloTag = experiment: TMP-Cl induced targeting of Rac1 to plasma membrane (eDHFR/HaloTag); details: TMP-Cl 10 μM, 1 h, excess washed off 30 min, HeLa
SMILES,reversal of Golgi localization (EGFP in HeLa cells),reversal of mitochondrial localization (EGFP in HeLa cells),reversal of Rac1 localization and morphology change (Rac1; 10 μM TMP),average area of cells after TMP addition (Rac1; 10 μM TMP after cRGT),reversal of mEYFP localization (mEYFP),PCC of colocalization (eDHFR and HaloTag)
"COc1cc(Cc2cnc(N)nc2N)cc(OC)c1OC [TMP, trimethoprim]",also rapidly reversible,rapidly reversible,completely reversed,decreased significantly,rapidly reversible,
COc1cc(Cc2cnc(N)nc2N)cc(OC)c1OCCOCCOCCOCCOCCOCCCCCCCl [TMP-Cl],,,,,,around 0.7
